The source of these data is patent US11433136B2, “Polyacetal polymers, conjugates, particles and uses thereof” (THE GENERAL HOSPITAL CORPORATION, priority 2015, dated 2022).

Series [1] addresses CXCR4 (Homo sapiens, UniProt P61073). The settings on record: cited from earlier work.
For series [2], the system named is fibroblast growth and collagen synthesis. The note with it: cited from earlier work.
Series [3] deals with leiomyoma cell. The settings on record: cultured cells; cited from earlier work.
Series [4] deals with human malignant glioma cells. The settings on record: cited from earlier work.
For series [5] the following is noted: mouse, in vivo, po, 10 mg/kg. As to the method:
The purpose of this single-dose PK study was to evaluate the in vivo drug release of Can-DPC in 4T1 tumor bearing animals by collecting whole blood, tumor, and liver tissue for bioanalytical quantification of polymer-conjugated and released drug (i.e., candesartan). In this example, the Can-DPC formulation (10 mg/kg) was administrated intravenously as a single bolus and compared directly with the PK profile of candesartan cilexetil administrated by oral gavage (10 mg/kg) using 0.5% HPMC as a vehicle (Table 5).
The mammary fat pads of Balb/C female mice (6-8 weeks old; Taconic) were implanted with syngeneic 4T1 mouse tumor cells (150,000 cells/per animal) obtained from ATCC. Tumors were allowed to develop for 10 days, reaching an average size of 150-450 mm^3 (caliper measurements), before the mice were randomized into three dose groups (Table 5). Following a single administration of the test agents (10 mg/kg) or vehicle alone, whole blood, tumor, and liver tissues were collected at 2, 24, 48 and 144 hrs post dose. In addition, intermediate submandibular bleeds (˜100 μL whole blood) were collected at 5 min, 30 min, 4 hrs, and 6 hrs (n=3 animals per timepoint) following the i.v. and p.o. dosing. […]

Sequence of CXCR4 (P61073 whole entry, species assumed): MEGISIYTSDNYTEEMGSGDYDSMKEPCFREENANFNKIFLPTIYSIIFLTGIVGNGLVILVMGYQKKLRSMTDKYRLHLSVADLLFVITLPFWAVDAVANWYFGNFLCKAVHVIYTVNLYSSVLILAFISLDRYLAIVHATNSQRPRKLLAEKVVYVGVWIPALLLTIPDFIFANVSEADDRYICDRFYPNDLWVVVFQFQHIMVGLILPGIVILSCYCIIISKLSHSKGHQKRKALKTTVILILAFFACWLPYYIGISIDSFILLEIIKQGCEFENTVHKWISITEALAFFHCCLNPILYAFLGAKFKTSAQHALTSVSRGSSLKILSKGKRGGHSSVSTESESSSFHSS

Consider `c1cc(CN2CCCNCCNCCCNCC2)ccc1CN1CCCNCCNCCCNCC1` [AMD3100, 1,1′-[1,4-phenylene-bis(methylene)]-bis-1,4,8,11-tetraazacyclotetradecane], for which the fibrosis result in series [1] was “can reduce fibrosis”. For the compound `Cc1ccc(=O)n(-c2ccccc2)c1` [PFD, 5-methyl-1-phenyl-2(1H)-pyridone], in series [2], the “fibroblast growth and collagen synthesis” value is “inhibitory effect on fibroblast growth and collagen synthesis”. The “leiomyoma cell proliferation and collagen production” value in series [3] is “reduce leiomyoma cell proliferation and collagen production in cultured cells”. The TGF-b expression result in series [4] is reported as “reduce TGF-b expression in human malignant glioma cells”. In the case of `CCOc1nc2cccc(C(=O)OC(C)OC(=O)OC3CCCCC3)c2n1Cc1ccc(-c2ccccc2-c2nn[nH]n2)cc1` (centres unmarked) [candesartan cilexetil], the candesartan in liver entry in series [5] was “non-detectable”.
